Legend:
[1] = test system: H. pylori SS1; assay: H. pylori killing kinetics at various pHs (CFU counting, 1 h); assay type: cell-based, Helicobacter pylori
Description: H. pylori killing kinetics at various pHs. The killing kinetics of polypeptides were measured against H. pylori by counting the colony forming units (CFU) of alive bacteria with agar plating. The polypeptides at various concentrations were dissolved in the Tris-HC buffer at various pHs (pH 7.4, 4.0, 3.0). H. pylori were then collected and dispersed in the BB medium supplied with fresh urea (10 mM) and 10% FBS at different pHs (pH 7.4, 4.0, 3.0). The optical density at 600 nm of the bacteria were fixed at 0.1. The bacteria were then incubated with the polypeptides solution at corresponding pH in the incubator supplied with 10% CO2 at 37° C. Samples were taken for a series of ten-fold dilutions, and plated out in BB agar plates with 10% FBS and vancomycin (pH 7.4) after 1 h incubation. The plates were incubated for 72 h in the incubator and the bacteria were counted for CFU. Bacteria incubated with Tris-HCl buffer only at corresponding pH were served as 100% survival. Survival rate (%)=CFU of bacteria treated with polypeptides/CFU of bacteria treated with buffer×100%. The killing kinetics of antibiotics (OAC, omeprazole, amoxicillin, clarithromycin) against H. pylori were determined with a similar procedure. The antibiotics at various concentrations were dissolved in the Tris-HCl buffer at pH 7.4, or 3.0, and were then incubated with H. pylori in BB medium supplied with fresh urea (10 mM) and 10% FBS at corresponding pH in the incubator. After 1 h incubation, the bacteria were collected by centrifuge at 10,000 rcf for 5 min and washed with fresh BB medium. Samples were then taken for a series of ten-fold dilutions, and plated out in BB agar plates with 10% FBS and vancomycin. The plates were incubated for 72 h in the incubator and the bacteria were counted for CFU.

[2] = test system: H. pylori SS1; assay: MIC of antibiotics against SS1; assay type: cell-based; settings: Helicobacter pylori
[3] = test system: clinical isolated H. pylori stains J99, J99A-7, J99A-9, J99A-11, J99C-8, J99D-1; assay: Growth (OD600) of clinical isolated H. pylori strains with antibiotics; assay type: cell-based, Helicobacter pylori; settings: pH 7.4, 10% CO2, 37° C.
Description: FIG. 8. (A) The survival rate of H. pylori after incubation with amoxicillin (273.7 μM) and clarithromycin (133.7 μM) under pH 7.4 or 3.0 for 1 h. […] Concentrations of omeprazole, amoxicillin, and clarithromycin in OAC1 are 20.0 μM, 6.8 μM, and 1.9 μM, respectively; in OAC2 are 40.0 μM, 13.6 μM, and 3.8 μM, respectively; in OAC3 are 80.0 μM, 27.2 μM, and 7.6 μM, respectively. (C) The antibacterial activity of omeprazole (O) and a combination of amoxicillin and clarithromycin (AC) against SS1 at pH 3.0. O1, O2, O3 represents the concentration of omeprazole at 20.0 μM, 40.0 μM, and 80.0 μM, respectively. AC1, AC2, AC3 represents the concentration of amoxicillin and clarithromycin at 6.8 μM and 1.9 μM, 13.6 μM and 3.8 μM, 27.2 μM and 7.6 μM, respectively. The antibiotics were incubated with H. pylori strains for 1 h. The antibacterial activity of amoxicillin (D) and clarithromycin (E) against clinical isolated H. pylori stains, J99, J99A-7, J99A-9, J99A-11, J99C-8, J99D-1. The bacteria were incubated with antibiotics under pH 7.4 in the 10% CO2 incubator (37° C.), and the optical density at 600 nm (OD600) of bacteria were analyzed to determine the growth of bacteria. […] (G) The antibacterial activity of omeprazole (0) and a combination of amoxicillin and clarithromycin (AC) against J99D-1 under pH 3.0.

[4] = Circular dichroism (CD) secondary structure of polypeptides at different pH; assay type: physicochemical; settings: pH 7.4 or 3.0
Description: The secondary structure of the polypeptides at different pH value was then investigated by circular dichroism (CD). […] Distortion of helical conformation was noted when the pH was adjusted back to neutral (FIG. 1C).
The MALLS detector was calibrated using pure toluene and can be used for the determination of the absolute molecular weights (MWs). The MWs of polymers were determined based on the dn/dc value of each polymer sample calculated offline by using the internal calibration system processed by the ASTRA V software (version 5.1.7.3, Wyatt Technology, Santa Barbara, Calif., USA). Circular dichroism (CD) measurements were carried out on a JASCO J-815 CD spectrometer. The polymer samples were prepared at concentrations of 4.4 μM. The solution was placed in a quartz cell with a path length of 0.10 cm. The zeta-potential of polypeptides was evaluated by Malvern Zetasizer. Infrared spectra were recorded on a Perkin Elmer 100 serial FTIR spectrophotometer calibrated with polystyrene film. Lyophilization was performed on a FreeZonelyophilizer (Labconco, Kansas City, Mo., USA). UV light was generated from an OmiCure S1000 UV lamp (EXFO, Mississauga, Canada).

[5] = Liposome dye leakage assay (ANTS/DPX efflux)
Description: Liposome dye leakage assay. ANTS (12.5 mM) and DPX (45 mM) were dissolved in Tris buffer (pH=7.4). To a clean round-bottom flask, appropriate volumes of lipid stocks were added to make up 1 mL of CHCl3 (3:1 POPE (1-palmitoyl-2-oleoyl-sn-glycero-3-phosphoethanolamine)/POPG (1-palmitoyl-2-oleoyl-sn-glycero-3-phospho-(1′-rac-glycerol) (sodium salt)) vesicles, POPE (130 μL, 25 mg/mL CHCl3) and POPG (115 μL, 10 mg/mL CHCl3) were used). The solvent was removed by a stream of nitrogen gas to obtain a thin lipid film, which was then hydrated by 1 mL of ANTS/DPX solution. The mixture was left to hydrate for 1 h, after which it was subjected to 10 freeze-thaw cycles (using dry ice/acetone to freeze and warm water to thaw). The suspension was extruded 20 times through a polycarbonate membrane with 400 nm pore diameter. The excess dye was removed using Sephadex G-50 column as the eluent. The dye-filled vesicle fractions were diluted 200 times with Tris buffer. This suspension (90 μL) was subsequently mixed with polypeptide stock solutions (10 μL) at various pH (pH 7.4 or 4.0) on a 96-well black microplate (Greiner, flat bottom). Tris buffer (10 μL, pH 7.4 or 4.0) and Triton-X (0.1% v/v, 10 μL, pH 7.4 or 4.0) were employed as the negative and positive controls at corresponding pH, respectively. After 30 min, the fluorescence intensity in each well was recorded using the microplate reader with excitation and emission wavelengths of 380 and 520 nm, respectively. The percentage of leaked […] dye in each well was determined as follows: leakage (%)=[(F−F0)/(FTX−F0)]×100%, where F is the fluorescence intensity recorded in the well, F0 is the intensity in the negative control well, and FTX is the intensity in the positive control well.

[6] = test system: H. pylori SS1; assay: SEM analysis of bacterial morphology; assay type: cell-based, Helicobacter pylori; settings: 30 min
Description: SEM analysis. SS1 bacterial cells grown in BB with the supplement of 10% FBS under pH 7.4 or 4.0 with or without polypeptides (2.2 μM) treatment were performed using a similar protocol as killing kinetics measurements but with a 30 min incubation time. All the samples were collected into a microfuge tube and pelleted at 4000 rpm for 5 min, and then washed twice with phosphate-buffered saline. Subsequently, bacteria were fixed with paraformaldehyde solution (4%) for 1 h before proceeding, followed by washing with DI water. Dehydration was performed with a series of graded ethanol solution (10%, 25%, 50%, 75%, 95%, and 100%). The dehydrated samples were dried under vacuum overnight before being mounted on carbon tape and coated with gold-platinum for imaging using a Hitachi S-4700 High Solution SEM (Japan).

[7] = test system: H. pylori SS1; assay: Anti-H. pylori efficacy in vivo (infected C57BL/6J mice); design: species or system Helicobacter pylori; settings: oral gavage once daily for 3 d, 2.6 μmol/kg
Description: Anti-H. pylori efficacy in vivo. […] For triple therapy, mice were first administered omeprazole (a proton pump inhibitor) through oral gavage at a dose of 400 μmol/kg, followed by a lag time of 30 min before administration of amoxicillin (68.0 μmol/kg) and clarithromycin (19.1 μmol/kg). PL2 and PDL2 in 5% (vol/vol) DMSO (both at 2.6 μmol/kg) were administered through oral gavage once daily for a consecutive 3 d. Water solution with 5% DMSO was served as negative control group. Forty-eight hours after the last administration, mice were killed and the stomach was removed from the abdominal cavity. The stomach was cut along the greater curvature, and the gastric content was removed and rinsed with PBS. The stomach sections were used for assessment of bacterial colonization. For bacterial colonization, a gastric tissue section was suspended in 1 mL PBS and homogenized for H. pylori recovery. The homogenate was serially diluted and spotted onto Columbia agar plate containing vancomycin (20 μg/mL), amphotericin (2 μg/mL), bacitracin (30 μg/mL) and nalidixic acid (10 μg/mL). The plates were then incubated at 37° C. under microaerobic conditions for 5 d, and bacterial colonies were enumerated and adjusted for dilutions.

Molecule	bactericidal activity against SS1 ([1]; pH 3.0, 1 h incubation)	bacteria killed ([1]; pH 7.4, 1 h incubation, 273.7 μM) [%]	MIC [2] [µM]	bacteria killed ([1]; pH 7.4, 1 h incubation, 133.7 μM) [%]	susceptibility of J99A-7, J99A-11, J99C-8 and J99D-1 (growth, OD600) [3]	secondary structure (CD), dependence on pH [4]	bactericidal activity against SS1 ([1]; pH 7.4, 1 h incubation)	dye leakage from anionic liposomes ([5]; pH 4.0)	dye leakage from anionic liposomes ([5]; pH 7.4)	bacterial membrane/morphology by SEM ([6]; pH 4.0, 2.2 μM)	bacterial membrane/morphology by SEM ([6]; pH 7.4, 2.2 μM)	decrease of bacterial burden in the stomach as compared with the control group [7]
CC1(C)S[C@@H]2[C@H](NC(=O)[C@H](N)c3ccc(O)cc3)C(=O)N2[C@H]1C(=O)O [amoxicillin, reference compound]	no bactericidal activity	~40	0.13									
CC[C@H]1OC(=O)[C@H](C)[C@@H](O[C@H]2C[C@@](C)(OC)[C@@H](O)[C@H](C)O2)[C@H](C)[C@@H](O[C@@H]2O[C@H](C)C[C@H](N(C)C)[C@H]2O)[C@](C)(OC)C[C@@H](C)C(=O)[C@H](C)[C@@H](O)[C@]1(C)O [clarithromycin, reference compound]	no bactericidal activity		0.07	~60	resistant							
(PHLG-MHH)20 [PL1]	killed H. pylori SS1					stable helical conformation independent of pH change	killed H. pylori SS1	notable dye leakage	notable dye leakage	membrane disruption	membrane disruption	
(PDLGA)20-r-(PHDLG-MHH)25 [PDL2]	unappreciable bactericidal activity					pH-independent non-helical conformation	unappreciable bactericidal activity	unappreciable dye leakage	unappreciable dye leakage	did not affect the morphology of bacteria	did not affect the morphology of bacteria	no significant decrease of bacterial burden
